Assay type in all cases: cell-based, chicken
In one assay the test system is BMAA4-2 cell line. In words: Sequence change analysis using BMAA4-2 cell line according to flow cytometry (cIgM+_Sema3A− population). Particulars: BMAA4-2 cells, FCM at 1 week of culture, versus negative control CS(−). The protocol:
A frozen stock of the BMAA4-2 cell line (3.0×10^6 cells) was awaken with 10 mL of CS(−) medium, using a 25 cm^2 Flask (Corning, 430639), and the cells were then cultured in a CO2 incubator (SANYO CO2 Incubator MCO-20AIC, 39.5° C., 5% CO2). On the following day, 500 μL each of a CS(−) medium, to which each drug had been added, was added into each well of a 48-well dish (Nunc, 150687), and the cells were then seeded thereon to a cell density of 6.0×10^4 cells/mL (wherein the cell concentration and the survival rate were measured using CASY cell counter (Nepa Gene)). After individual samples had been cultured for 2 days, the samples were subcultured under the same conditions to result in a cell density of 1.0×10^4 cells/mL. […] Thereafter, a plot, in which the vertical axis indicated APC (AF647-labeled Sema3A) and the longitudinal axis indicated PE (Mouse Anti-Chicken IgM-PE), was developed, and the percentage of PE+ (cIgM+)_APC− (Sema3A−) cells was then calculated.
Using the BMAA4-2 cell line, a system for screening for a diversification-promoting compound was constructed (FIG. 1). […] Thus, the percentage of cIgM+_Sema3A− populations under individual culture conditions is measured and compared according to FCM, so that the effect of promoting changes in the amino acid sequences (i.e., the effect of promoting the diversification of the amino acid sequences) can be evaluated.

A further assay concerns hVEGF-A-#33 cell line. Description: Affinity Maturation and FCM, cells in Affinity Maturation Gate. The conditions noted are these: A66 10 μM, PI3Kα Inhibitor 2 500 nM, Day 7, versus conditions without drug. As to the method:
(§1) Frozen stocks of the hVEGF-A #33 cell line and the hVEGF-A #44 cell line (3.0×10^6 cells) were each awaken with a CS(−) medium, using a 25 cm^2 Flask (Corning, 430639), and were then cultured in a CO2 incubator (SANYO CO2 Incubator MCO-20AIC, 39.5° C., 5% CO2). On the following day, the cells were seeded on a 6-well dish (Nunc, 140675) to a cell density of 1.0×10^4 cells/mL (wherein the cell concentration and the survival rate were measured using CASY cell counter (Nepa Gene)). The cells were cultured in a CS(+) medium, in the presence or absence of a PI3Kα inhibitor (A66: 10 μM, PI3Kα Inhibitor 2: 500 nM). Moreover, after the cells had been cultured for 2 days, individual samples were subcultured under the same conditions to result in a cell density of 1.0×10^4 cells/mL. […] A plot, in which the vertical axis indicated AF647 (AF647-labeled hVEGF-A) and the longitudinal axis indicated PE (Goat Anti-Human IgG-PE), was developed, and the percentage of PE+(hIgG+)/[…] cells was then calculated. […] The percentage of clones with improved antigen-binding ability was calculated by counting the number of cells existing in this Affinity Maturation Gate and then dividing the obtained value by the total number of the analyzed cells. […]

The next assay concerns hVEGF-A-#44 cell line. Described as above. Particulars: A66 10 μM, PI3Kα Inhibitor 2 500 nM, Day 7, versus conditions without drug. As to the method:
as §1

Structures are written as SMILES.

We go through one compound from patent US11572402B2, “Method for promoting diversification of antibody variable region” (Chiome Bioscience Inc., priority 2017, dated 2023).

For `Cc1nc(NC(=O)N2CCC[C@H]2C(N)=O)sc1-c1csc(C(C)(C)C)n1` [A66], the “percentage of cIgM+_Sema3A− populations (sequence change-promoting action)” value with BMAA4-2 cell line is recorded as “highest sequence change-promoting action”. Further, the “percentage of the cells with improved antigen-binding ability (Affinity Maturation Gate, 5 or more times increased in MFI)” value in the assay with hVEGF-A-#33 cell line and with hVEGF-A-#44 cell line was “increased” throughout.
